From US20220331348A1, “METHOD OF PREPARING PENTACYCLIC TRITERPENOID SAPONINS AND DRUG COMPOSITION” (CHINA PHARMACEUTICAL UNIVERSITY, priority 2019, published 2022)

How the values were obtained:
[1] = test system: CCl4-induced hepatic fibrosis mice; experiment: CCl4-induced hepatic fibrosis mice; format: in vivo, mouse; details: for MMP2 gene expression / TGF-β gene expression / collagen 1 gene expression: CCl4-induced hepatic fibrosis mice, 5 mg/Kg, n = 8
Protocol: Animal: 32 C57BL/6J male mice of SPF level with 25 g were purchased from Beijing Vital River Laboratory Animal Technology Co., Ltd. All the animals maintained 12 h alternative circadian rhythm with free access to food.
Reagent: the ginsenoside Ro was purchased from Shanghai Boka Chemistry Technology Co., Ltd; CCl4 was purchased from sigma Company; and sunflower seed oil was purchased from Nanjing Yuanye Biotechnology Co., Ltd.
The mice were randomly divided into 4 groups based on weights: a blank control group (CTL), a model group (CCl4), a ginsenoside Ro low-dosage group (Low) (5 mg/kg) and a ginsenoside Ro high-dosage group (High) (10 mg/kg), totally 4 groups (with 8 mice each).
A modeling mode was that the mice were given with a CCl4-contained sunflower seed oil solution (with a CCl4 content of 25%, v/v) in a dosage of 2mL/kg by intraperitoneal injection, and the mice in the control group were injected with a corresponding dosage of the sunflower seed oil solution two times per week. From experiment day 1 onward, the mice in the control group were given with a CMC-Na solution with the mass fraction of 0.5% intragastrically every day and with sunflower seed oil two times per week by intraperitoneal injection; the mice in the model group were given with the CMC-Na solution with the mass fraction of 0.5% intragastrically every day and with the CCl4-contained sunflower seed oil solution two times per week by intraperitoneal injection; the mice in the ginsenoside Ro low-dosage group (Low) were given with 5 mg/kg of the ginsenoside Ro intragastrically every day and with a CCl4 solution two times per week by intraperitoneal injection; and the mice in the ginsenoside Ro high-dosage group (High) were given with 10 mg/kg of the ginsenoside Ro intragastrically every day and with the CCl4-contained sunflower seed oil solution two times per week by intraperitoneal injection. Administration was conducted for a total of 4 weeks.
The mice were deprived of food but not water for 12 h in advance; and the next morning, blood was taken from eyeballs, the mice were sacrificed, and livers were harvested. Right liver lobule tissues were fixed with 4% paraformaldehyde for HE stained slicing. The rest liver tissues were divided into 3 parts, which were snap-frozen in liquid nitrogen for subsequent detection of other indexes.
Whole blood was left to still standing for 2 h at room temperature, centrifugation was conducted for 15 min at 3000 rpm, and a serum was collected and sent to Pathologic Department of Hospital of Integrated Traditional Chinese and Western Medicine in Jiangsu Province for determination of levels of glutamic oxalacetic transaminase (AST) and glutamic-pyruvic transaminase (ALT) in the serum with a full-automatic biochemical analyzer.
Pretreated tissues were sent to Google Biotechnology Co., Ltd for preparing HE stained slices.
6. Extraction of Liver Tissue RNA and q-PCR Detection Liver tissues preserved at −80° C. were put in the liquid nitrogen, about 10 mg of the liver tissues were quickly dissected out, about 500 μL of a precooled Trizol reagent was added, the tissues were homogenized with the homogenizer and then left to lyse on the ice for 15 min, 100 μL of chloroform was added for vigorous shaking for 15 s, and a product was put on the ice for 10 min and then was subjected to centrifugation for 15 min at 4° C. and 12000 rpm. An upper aqueous phase was transferred to a clean 1.5 mL EP tube, […] of isopropanol was added for RNA precipitation, the EP tube was put on the ice for 10 min and then was subjected to centrifugation for 10 min at 4° C. and 12000 rpm. The supernate was discarded, precipitates were washed one time with 75% ethyl alcohol, a supernate was discarded after centrifugation, and precipitates of
RNA dissolved with the water were treated with 40 mL of DEPC. […]

[2] = test system: human ADPKD cyst lining epithelial cell lines WT9-12; experiment: Proliferation of polycystic kidney epithelial cells (CCK-8 method); format: cell-based; details: 48 h; for inhibition at 10 µM: read-out: Inhibition rate (%)
Source text: Cell and reagent: complete media for human ADPKD cyst lining epithelial cell lines WT9-12 and DMEM were purchased from ATCC Company; fetal calf serums were purchased from Gibco Company; Cell Counting Kit-8 was purchased from DOJINDO Company; Click-iT® EdU Imaging Kits were purchased from Invitrogen™ Thermo Fisher Scientific Company; Caspase -3/CPP32 Colorimetric Assay Kit was purchased from BioVision Company; Annexin V/PI double-staining flow type cell apoptosis detection kits were purchased from Bender Company; and anti-Phospho-(AMPKa, mTOR, p70S6K, 4E-BP1) antibodies were purchased from Cell Signaling Technology Company.
The influence of 2-DG on proliferation of the polycystic kidney epithelial cells was detected with a CCK-8 method: a DMEM complete medium containing 10% fetal calf serum (FBS) was prepared. The polycystic kidney epithelial cells were cultured in an incubator with 5% CO2 at 37° C. after being recovered, a solution was replaced every other day, the polycystic kidney epithelial cells were passaged every 2-3 days, and the cells were in a growing state of adhering to the wall. After trypsin enzyme digestion, cells were resuspended by using a complete medium, the concentration of a polycystic kidney epithelial cell suspension was regulated to be 3×10^7/L, the polycystic kidney epithelial cell suspension was inoculated to 96-well plate by […] per well for culture for 24 h, and the suspension was replaced by a culture medium containing 0.1% FBS for synchronization for 24 h.

[3] = CCl4 mice liver, 5 mg/kg and 10 mg/kg, 4 weeks, q-PCR (FIG. 9)
[4] = CCl4 mice, low-dosage 5 mg/kg and high-dosage 10 mg/kg intragastrically every day, 4 weeks (FIG. 8)
[5] = Homo sapiens, Epithelial cell, polycystic kidney epithelial cells, 10 μM, CCK-8, n = 6

Compound | mRNA expression level of -SMA [1, 3] | mRNA expression level of MMP2 [1, 3] | mRNA expression level of TGF [1, 3] | mRNA expression level of collagen 1 [1, 3] | level of the ALT in the serum [1, 4] | level of the AST in the serum [1, 4] | hepatic fibrosis induced by CCl4 ([1]; CCl4 mice, summary in words) | inflammatory responses of hepatic fibrosis animal models ([1]; CCl4 mice, summary in words) | inhibition at 10 µM [2, 5] [%] | IC50 ([2]; Homo sapiens, Epithelial cell, WT9-12 cells, CCK-8 (FIG. 15), read-out: median inhibitory concentration (IC50), proliferation of the polycystic kidney epithelial cells) [µM] | MMP2 gene expression [1] | TGF-β gene expression [1] | collagen 1 gene expression [1] | Inhibition rate (%) ([2]; polycystic kidney epithelial cells, 10 μM, CCK-8, n = 6)
CC1(C)CC[C@]2(C(=O)O[C@@H]3O[C@H](CO)[C@@H](O)[C@H](O)[C@H]3O)CC[C@]3(C)C(=CC[C@@H]4[C@@]5(C)CC[C@H](O[C@@H]6O[C@H](C(=O)O)[C@@H](O)[C@H](O)[C@H]6O[C@@H]6O[C@H](CO)[C@@H](O)[C@H](O)[C@H]6O)C(C)(C)[C@@H]5CC[C@]43C)[C@@H]2C1 [(I), ginsenoside Ro] | significantly lowered | significantly lowered | significantly lowered | significantly lowered | significantly lowered | significantly lowered | significantly inhibit | significantly inhibit | 74.4 ± 2.3 |  |  |  |  | 
CC1(C)CC[C@]2(C(=O)O[C@@H]3O[C@H](CO[C@@H]4O[C@H](CO)[C@@H](O)[C@H](O)[C@H]4O)[C@@H](O)[C@H](O)[C@H]3O)CC[C@]3(C)C(=CC[C@@H]4[C@@]5(C)CC[C@H](O[C@@H]6OC[C@H](O)[C@H](O)[C@H]6O)[C@@](C)(CO)[C@@H]5CC[C@]43C)[C@@H]2C1 [(II), asperosaponin VI] |  |  |  |  |  |  |  |  |  | 3.2 |  |  |  | 
C[C@@H]1O[C@@H](O[C@H]2[C@H](O[C@H]3CC[C@@]4(C)[C@@H](CC[C@]5(C)[C@@H]4CC=C4[C@@H]6CC(C)(C)CC[C@]6(C(=O)O)CC[C@]45C)[C@]3(C)CO)OC[C@H](O)[C@@H]2O)[C@H](O)[C@H](O)[C@H]1O [(X), α-hederin] |  |  |  |  |  |  | effectively inhibit |  | 80.5 ± 3.2 |  | 6.37 ± 5.73 fold induction compared with the control group | 2.75 ± 0.99 fold induction compared with the control group | 7.93 ± 2.28 fold induction compared with the control group | 
C[C@@H]1O[C@@H](O[C@H]2[C@H](O[C@H]3CC[C@@]4(C)[C@@H](CC[C@]5(C)[C@@H]4CC=C4[C@@H]6CC(C)(C)CC[C@]6(C(=O)O[C@@H]6O[C@H](CO[C@@H]7O[C@H](CO)[C@@H](O[C@@H]8O[C@@H](C)[C@H](O)[C@@H](O)[C@H]8O)[C@H](O)[C@H]7O)[C@@H](O)[C@H](O)[C@H]6O)CC[C@]45C)[C@]3(C)CO)OC[C@H](O)[C@@H]2O)[C@H](O)[C@H](O)[C@H]1O [(XI), hederacoside C] |  |  |  |  |  |  | effectively inhibit |  |  |  | 7.65 ± 4.03 fold induction compared with the control group | 2.96 ± 1.01 fold induction compared with the control group | 8.07 ± 3.27 fold induction compared with the control group | 64.4 ± 2.6
C[C@@H]1CC[C@]2(C(=O)O[C@@H]3O[C@H](CO)[C@@H](O)[C@H](O)[C@H]3O)CC[C@]3(C)C(=CC[C@@H]4[C@@]5(C)CC[C@H](O[C@@H]6OC[C@H](O)[C@H](O)[C@H]6O)C(C)(C)[C@@H]5CC[C@]43C)[C@@H]2[C@]1(C)O [(XII), ziyuglycoside I] |  |  |  |  |  |  | effectively inhibit |  | 69.2 ± 1.7 |  | 8.38 ± 3.86 fold induction compared with the control group | 2.91 ± 1.10 fold induction compared with the control group | 7.65 ± 2.43 fold induction compared with the control group | 
C[C@@H]1CC[C@]2(C(=O)O)CC[C@]3(C)C(=CC[C@@H]4[C@@]5(C)CC[C@H](O[C@@H]6OC[C@H](O)[C@H](O)[C@H]6O)C(C)(C)[C@@H]5CC[C@]43C)[C@@H]2[C@]1(C)O [(XIII), ziyuglycoside II] |  |  |  |  |  |  | effectively inhibit |  | 72.1 ± 2 |  | 7.38 ± 3.48 fold induction compared with the control group | 3.03 ± 0.76 fold induction compared with the control group | 8.16 ± 3.37 fold induction compared with the control group | 
